The target in the first test is T1, hSTING (Homo sapiens, UniProt Q86WV6, G230A/H232R/R293Q/R71H).
T1 construct: host or cells: THP1-Dual KO-IFNAR2 cells
T1 sequence (Q86WV6 whole entry R71H/G230A/H232R/R293Q): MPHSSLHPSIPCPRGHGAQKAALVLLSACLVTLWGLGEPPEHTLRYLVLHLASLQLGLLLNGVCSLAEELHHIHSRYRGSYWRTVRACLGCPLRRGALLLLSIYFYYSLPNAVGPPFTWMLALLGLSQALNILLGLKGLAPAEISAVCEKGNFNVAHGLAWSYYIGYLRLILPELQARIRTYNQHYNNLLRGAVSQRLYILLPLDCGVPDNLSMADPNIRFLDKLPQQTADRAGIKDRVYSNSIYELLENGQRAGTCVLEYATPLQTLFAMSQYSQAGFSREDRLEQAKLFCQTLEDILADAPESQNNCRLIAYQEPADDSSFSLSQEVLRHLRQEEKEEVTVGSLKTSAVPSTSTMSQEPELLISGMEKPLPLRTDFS
In words: STING reporter assay (luciferase) in THP1-Dual KO-IFNAR2 cells stimulated with 2′3′cGAMP. Conditions: 15 μM 2′3′cGAMP transfected, 24 h, class symbols. Type of test: cell-based. As for the experimental part:
STING pathway activation by the compounds described herein was measured using THP1-Dual™ cells (KO-IFNAR2).
THP1-Dual™ KO-IFNAR2 Cells (obtained from invivogen) were maintained in RPMI, 10% FCS, 5 ml P/S, 2 mM L-glut, 10 mM Hepes, and 1 mM sodium pyruvate. Compounds were spotted in empty 384 well tissue culture plates (Greiner 781182) by Echo for a final concentration of 0.0017-100 μM. Cells were plated into the TC plates at 40 μL per well, 2×10E6 cells/mL. For activation with STING ligand, 2′3′cGAMP (MW 718.38, obtained from Invivogen), was prepared in Optimem media.
The following solutions were prepared for each 1×384 plate: • Solution A: 2 mL Optimem with one of the following stimuli: • 60 μL of 10 mM 2′3′cGAMP→150 μM stock • Solution B: 2 mL Optimem with 60 μL Lipofectamine 2000→Incubate 5 min at RT
2 mL of solution A and 2 ml Solution B was mixed and incubated for 20 min at room temperature (RT). 20 μL of transfection solution (A+B) was added on top of the plated cells, with a final 2′3′cGAMP concentration of 15 μM. The plates were then centrifuged immediately at 340 g for 1 minute, after which they were incubated at 37° C., 5% CO2,>98% humidity for 24 h. Luciferase reporter activity was then measured. EC50 values were calculated by using standard methods known in the art.
Luciferase reporter assay: 10 μL of supernatant from the assay was transferred to white 384-plate with flat bottom and squared wells. One pouch of QUANTI-Luc™ Plus was dissolved in 25 mL of water. 100 μL of QLC Stabilizer per 25 mL of QUANTI-Luc™ Plus solution was added. 50 μL of QUANTI-Luc™ Plus/QLC solution per well was then added. Luminescence was measured on a Platereader (e.g., Spectramax I3X (Molecular Devices GF3637001)).
Luciferase reporter activity was then measured. EC50 values were calculated by using standard methods known in the art.
In general terms: In a reporter assay the amount or activity of a reporter protein is the signal.
On to `O=C(Nc1c[nH]c2cc(F)c(F)cc12)N[C@H]1CC[C@H](OC2CC(F)(F)C2)CC1` [Compound 101, 1-(5,6-difluoro-1H-indol-3-yl)-3-((1r,4r)-4-(3,3-difluorocyclobutoxy)cyclohexyl)urea], for which the 50% effective concentration (EC50) – broadly, the concentration that produces a half-maximal response – is 1000 to 5000 nM.

As for `O=C(Nc1c[nH]c2ccc(Cl)cc12)N[C@H]1CC[C@@H](N2CCC(F)(F)CC2)CC1` [Compound 102, 1-(5-chloro-1H-indol-3-yl)-3-((1s,4s)-4-(4,4-difluoropiperidin-1-yl)cyclohexyl)urea], the EC50 was in the range of 5000 to 100000 nM.

Turning to `O=C(Nc1c[nH]c2ccc(Cl)cc12)N[C@H]1CC[C@H](N2CCC(F)(F)CC2)CC1` [Compound 103, 1-(5-chloro-1H-indol-3-yl)-3-((1r,4r)-4-(4,4-difluoropiperidin-1-yl)cyclohexyl)urea], the EC50 was 5000 to 100000 nM.

`O=C(Nc1c[nH]c2cc(F)c(F)cc12)NC1CC(OC2CCN(CC(F)(F)F)CC2)C1` (stereo not drawn) [Compound 104, 1-(5,6-difluoro-1H-indol-3-yl)-3-(3-((1-(2,2,2-trifluoroethyl)piperidin-4-yl)oxy)cyclobutyl)urea] came in with an EC50 of 1000 to 5000 nM.

The compound `O=C(Nc1c[nH]c2ccc(Cl)cc12)NC1CCN(c2ccc(C(F)(F)F)cn2)CC1` [Compound 105, 1-(5-chloro-1H-indol-3-yl)-3-(1-(5-(trifluoromethyl)pyridin-2-yl)piperidin-4-yl)urea] had a concentration for a half-maximal effect (EC50) of 200 to 1000 nM.

For the compound `O=C(Nc1c[nH]c2ccc(Cl)cc12)NC1CCN(Cc2ccc(C(F)(F)F)cn2)CC1` [Compound 107, 1-(5-chloro-1H-indol-3-yl)-3-(1-((5-(trifluoromethyl)pyridin-2-yl)methyl)piperidin-4-yl)urea], the half-maximal effective concentration (EC50) is 1000 to 5000 nM.

In turn, `O=C(Nc1c[nH]c2ccc(F)cc12)N[C@H]1CC[C@H](Oc2ccc(C(F)(F)F)cn2)CC1` [Compound 108, 1-(5-fluoro-1H-indol-3-yl)-3-((1r,4r)-4-((5-(trifluoromethyl)pyridin-2-yl)oxy)cyclohexyl)urea] returned a half-maximal effective concentration (EC50) of 200 to 1000 nM.

As to `O=C(Nc1c[nH]c2ccc(F)cc12)N[C@H]1CC[C@@H](Oc2ccc(C(F)(F)F)cn2)CC1` [Compound 109, 1-(5-fluoro-1H-indol-3-yl)-3-((1s,4s)-4-((5-(trifluoromethyl)pyridin-2-yl)oxy)cyclohexyl)urea], the EC50 is 200 to 1000 nM.

`O=C(Nc1c[nH]c2ccc(Cl)cc12)N[C@H]1C[C@H](Oc2ccc(C(F)(F)F)cn2)C1` [Compound 110, 1-(5-chloro-1H-indol-3-yl)-3-((1r,3r)-3-((5-(trifluoromethyl)pyridin-2-yl)oxy)cyclobutyl)urea] had an EC50 of 200 to 1000 nM.

Regarding `O=C(Nc1c[nH]c2ccc(Cl)cc12)N[C@H]1C[C@@H](Oc2ccc(C(F)(F)F)cn2)C1` [Compound 111, 1-(5-chloro-1H-indol-3-yl)-3-((1s,3s)-3-((5-(trifluoromethyl)pyridin-2-yl)oxy)cyclobutyl)urea], the EC50 was in the range of 200 to 1000 nM.

In the case of `O=C(Nc1c[nH]c2ccc(Cl)cc12)N[C@H]1CC[C@H](Oc2ccc(C(F)(F)F)cn2)CC1` [Compound 112, 1-(5-chloro-1H-indol-3-yl)-3-((1r,4r)-4-((5-(trifluoromethyl)pyridin-2-yl)oxy)cyclohexyl)urea], the EC50 lay within 200 to 1000 nM.

Regarding `O=C(Nc1c[nH]c2ccc(Cl)cc12)N[C@H]1CC[C@@H](Oc2ccc(C(F)(F)F)cn2)CC1` [Compound 113, 1-(5-chloro-1H-indol-3-yl)-3-((1s,4s)-4-((5-(trifluoromethyl)pyridin-2-yl)oxy)cyclohexyl)urea], the half-maximal effective concentration (EC50) fell in the range of 200 to 1000 nM.

Take `O=C(Nc1c[nH]c2ncc(F)cc12)N[C@H]1CC[C@@H](Oc2ccc(C(F)(F)F)cn2)CC1` [Compound 115, 1-(5-fluoro-1H-pyrrolo[2,3-b]pyridin-3-yl)-3-((1s,4s)-4-((5-(trifluoromethyl)pyridin-2-yl)oxy)cyclohexyl)urea]: the half-maximal effective concentration (EC50) lay within 1000 to 5000 nM.

Still in this test, the particulars now being: 15 μM 2′3′cGAMP transfected, 24 h, numeric bound given instead of a class symbol.
The compound `COCCN1CCC(O[C@H]2CC[C@H](NC(=O)Nc3c[nH]c4ccc(Cl)cc34)CC2)CC1` [Compound 106, 1-(5-chloro-1H-indol-3-yl)-3-((1r,4r)-4-((1-(2-methoxyethyl)piperidin-4-yl)oxy)cyclohexyl)urea] gave an EC50 above 30000 nM.

`O=C(Nc1c[nH]c2ncc(F)cc12)N[C@H]1CC[C@H](Oc2ccc(C(F)(F)F)cn2)CC1` [Compound 116, 1-(5-fluoro-1H-pyrrolo[2,3-b]pyridin-3-yl)-3-((1r,4r)-4-((5-(trifluoromethyl)pyridin-2-yl)oxy)cyclohexyl)urea] showed a concentration for a half-maximal effect (EC50) above 30000 nM.

The values are drawn from patent publication US20240308978A1, “COMPOUNDS AND COMPOSITIONS FOR TREATING CONDITIONS ASSOCIATED WITH STING ACTIVITY” (IFM Due, Inc., priority 2021, published 2024).
